Measurements as given in US5710179A, “Antitumor agent” (priority 1995, dated 1998).
Where a name gives a salt, the structure may show the parent alone.

Key:
[1] = test system: Hep G2 cell (cancer of liver); assay: Inhibition of tumor growth in nude mice, Hep G2; format: in vivo, human; details: 0.05 μg/mouse s.c. twice a week
[2] = test system: Hep-2 cell (thyroid gland cancer); assay: Inhibition of tumor growth in nude mice, Hep-2; format: in vivo, human; details: 0.05 μg/mouse s.c. twice a week
[3] = test system: HLC-1 cell (lung cancer); assay: Inhibition of tumor growth in nude mice, HLC-1; format: in vivo, human; design: Average tumor weight, on a wet cell basis: unit not given here; details: 0.05 μg/mouse s.c. twice a week
[4] = test system: RPMI 4788 cell (colon cancer); assay: Inhibition of tumor growth in nude mice, RPMI 4788; format: in vivo, human; details: 0.05 μg/mouse s.c. twice a week
[5] = test system: G-361 cell (malignant melanoma); assay: Inhibition of tumor growth in nude mice, G-361; format: in vivo, human; details: 0.05 μg/mouse s.c. twice a week
[6] = test system: HGC-27 cell (gastric cancer); assay: Inhibition of tumor growth in nude mice, HGC-27; format: in vivo, human; details: 0.05 μg/mouse s.c. twice a week
[7] = test system: KB cell (rhinopharynx cancer); assay: Inhibition of tumor growth in nude mice, KB; format: in vivo, human; details: 0.05 μg/mouse s.c. twice a week
[8] = test system: human malignant tumors; assay: Antitumor activity by the inhibition of tumor growth, nude mice, summary over human tumors; format: in vivo; details: 0.05 μg s.c. twice a week
Method: Based on the data of Experiment 2, a minimum dose of the compounds 1-5 to a nude mouse was estimated to be about 0.05 μg/mouse/shot, and the antitumor activity of the compounds 1-5 was tested by administering them at the above dose to nude mice transplanted with human malignant tumors.
Thereafter mice, observed the tumor cells' insertion, were grouped in a group of 7 mice, then administered twice a week with 0.2 ml of a physiological saline containing 0.05 μg of the compound 2 to the dorsal subcutaneous tissues, and observed for 25 days. As a control, mice in other group were administered in the same administration schedule with 0.2 ml/shot of physiological saline free of the compound 2.
On the 27th day after the transplantation, tumor masses formed in the nude mice were extracted and weighed, on a wet cell basis, according to the method as disclosed by Y. Shimosato and N. Tamaoki in "Jingan-to-Nude-mouse (Human Cancer and Nude Mice)", pp. 321-323 (1982), published by Ishiyaku Publishers, Inc., Tokyo, Japan, and the percentage surviving (%) on the 35th day after the transplantation was calculated.

[9] = test system: HL-60 cell (leukemia); assay: Inhibition of tumor growth in nude mice, HL-60; format: in vivo, human; details: 0.05 μg/mouse s.c. twice a week
[10] = test system: Meth A sarcoma; assay: Antitumor activity on mouse with carcinoma (Meth A sarcoma, i.p., 40 days); format: in vivo, BALB/c male mice; details: for Average day surviving: 40 days, control 28.1 ± 0.2; for Prolongation percentage of life (T/C %): control 100; for Number surviving after 40 days: group of 10, control 0
Method: About 1×10^6 cells/mouse of Meth A sarcoma was intraperitoneally injected into 8-week-old BALB/c male mice. From the next day after the administration, mice in a group of 10 were intraperitoneally injected twice a week with 0.2 ml of a physiological saline containing 0.0005, 0.005, 0.05 or 0.5 μg of any one of the compounds 1-5, and observed for 40 days. As a control, 0.2 ml/mouse/shot of physiological saline free of the compounds 1-5 was intraperitoneally injected to other groups of mice similarly as above.
Based on the data of the average day surviving (T) in the Groups of mice with the compounds 1-5 and the average day surviving (C) in the control group of mice, the prolongation percentage of life (T/C %) was calculated by the formula 1. [formula]

[11] = test system: WiDr cell (rectum cancer); assay: Inhibition of tumor growth in nude mice, WiDr; format: in vivo, human; details: 0.05 μg/mouse s.c. twice a week
[12] = test system: HeLa cell (uterine cancer); assay: Inhibition of tumor growth in nude mice, HeLa; format: in vivo, human; details: 0.05 μg/mouse s.c. twice a week
[13] = test system: U-937 cell (lymphoma); assay: Inhibition of tumor growth in nude mice, U-937; format: in vivo, human; details: 0.05 μg/mouse s.c. twice a week
[14] = test system: human malignant tumors; details: Foods & Food Ingredients Journal of Japan, Vol.160 (1994); cited from earlier work
[15] = 0.0005 μg/0.2 ml/mouse i.p. twice a week
[16] = 0.005 μg/0.2 ml/mouse i.p. twice a week
[17] = 0.05 μg/0.2 ml/mouse i.p. twice a week
[18] = 0.05 μg/0.2 ml/mouse i.p. twice a week, all marked * (significant, 5% level or lower vs control)
[19] = 0.5 μg/0.2 ml/mouse i.p. twice a week
[20] = 0.5 μg/0.2 ml/mouse i.p. twice a week, all marked * (significant, 5% level or lower vs control)

CC(C)=CCc1cc(/C=C/C(=O)O)cc(CC=C(C)C)c1O [compound 2, sodium salt of 3-[4-hydroxy-3,5-bis(3-methyl-2-butenyl)phenyl]-2-propenoic acid]
Average tumor weight, on a wet cell basis ([1]; 27th day after transplantation, control 2.06 ± 0.85, in g (unit assumed)): 0.18 ± 0.02
Percentage surviving at judgement (%) ([1]; 35th day, control 42.8): 100%
Average tumor weight, on a wet cell basis ([2]; 27th day after transplantation, control 2.16 ± 1.31, in g (unit assumed)): 0.81 ± 0.65
Percentage surviving at judgement (%) ([2]; 35th day, control 42.8): 100%
Average tumor weight, on a wet cell basis ([3]; 27th day after transplantation, control 1.25 ± 0.81): 0.124 ± 0.06
Percentage surviving at judgement (%) ([3]; 35th day, control 71.4): 100%
Average tumor weight, on a wet cell basis ([4]; 27th day after transplantation, control 2.95 ± 1.36, in g (unit assumed)): 0.21 ± 0.03
Percentage surviving at judgement (%) ([4]; 35th day, control 71.4): 100%
Average tumor weight, on a wet cell basis ([5]; 27th day after transplantation, control 1.96 ± 0.98, in g (unit assumed)): 0.36 ± 0.02
Percentage surviving at judgement (%) ([5]; 35th day, control 57.1): 100%
Average tumor weight, on a wet cell basis ([6]; 27th day after transplantation, control 1.86 ± 0.64, in g (unit assumed)): 0.35 ± 0.09
Percentage surviving at judgement (%) ([6]; 35th day, control 85.7): 100%
Average tumor weight, on a wet cell basis ([7]; 27th day after transplantation, control 2.12 ± 0.96, in g (unit assumed)): 0.54 ± 0.03
Percentage surviving at judgement (%) ([7]; 35th day, control 42.8): 100%
antitumor effect on human malignant tumors [8]: strong antitumor effect
percentage surviving on the 35th day after the transplantation [8]: attained a desired percentage surviving
Average tumor weight, on a wet cell basis ([9]; 27th day after transplantation, control 1.43 ± 0.08, in g (unit assumed)): 0.18 ± 0.03
Percentage surviving at judgement (%) ([9]; 35th day, control 100): 100%
Average day surviving [10, 15]: 32.3 ± 0.8 days
Prolongation percentage of life (T/C %) [10, 15]: 114.9%
Number surviving after 40 days [10, 15]: 2
Average day surviving [10, 16]: 36.5 ± 0.5 days
Prolongation percentage of life (T/C %) [10, 16]: 129.9%
Number surviving after 40 days [10, 16]: 6
Average day surviving [10, 17]: 38.1 ± 0.1 days
Prolongation percentage of life (T/C %) [10, 18]: 135.6%
Number surviving after 40 days [10, 17]: 8
Average day surviving [10, 19]: > 40.0 days
Prolongation percentage of life (T/C %) [10, 20]: 142.3%
Number surviving after 40 days [10, 19]: 10
Average tumor weight, on a wet cell basis ([11]; 27th day after transplantation, control 1.83 ± 0.85, in g (unit assumed)): 0.36 ± 0.02
Percentage surviving at judgement (%) ([11]; 35th day, control 85.7): 100%
Average tumor weight, on a wet cell basis ([12]; 27th day after transplantation, control 1.36 ± 0.61, in g (unit assumed)): 0.54 ± 0.06
Percentage surviving at judgement (%) ([12]; 35th day, control 100): 100%
Average tumor weight, on a wet cell basis ([13]; 27th day after transplantation, control 0.99 ± 0.81, in g (unit assumed)): 0.25 ± 0.02
Percentage surviving at judgement (%) ([13]; 35th day, control 85.7): 100%

CC(C)=CCc1cc(/C=C/C(=O)O)cc(CC=C(C)C)c1O [compound 4, magnesium salt of 3-[4-hydroxy-3,5-bis(3-methyl-2-butenyl)phenyl]-2-propenoic acid]
Average day surviving [10, 15]: 34.9 ± 0.3 days
Prolongation percentage of life (T/C %) [10, 15]: 124.2%
Number surviving after 40 days [10, 15]: 3
Average day surviving [10, 16]: 35.7 ± 0.4 days
Prolongation percentage of life (T/C %) [10, 16]: 127.0%
Number surviving after 40 days [10, 16]: 5
Average day surviving [10, 17]: 37.5 ± 0.2 days
Prolongation percentage of life (T/C %) [10, 18]: 133.5%
Number surviving after 40 days [10, 17]: 7
Average day surviving [10, 19]: > 40.0 days
Prolongation percentage of life (T/C %) [10, 20]: 142.3%
Number surviving after 40 days [10, 19]: 10

CC(C)=CCc1cc(/C=C/C(=O)O)cc(CC=C(C)C)c1O [compound 3, calcium salt of 3-[4-hydroxy-3,5-bis(3-methyl-2-butenyl)phenyl]-2-propenoic acid]
Average day surviving [10, 15]: 31.1 ± 0.6 days
Prolongation percentage of life (T/C %) [10, 15]: 110.7%
Number surviving after 40 days [10, 15]: 2
Average day surviving [10, 16]: 35.9 ± 0.3 days
Prolongation percentage of life (T/C %) [10, 16]: 127.8%
Number surviving after 40 days [10, 16]: 6
Average day surviving [10, 17]: 38.9 ± 0.2 days
Prolongation percentage of life (T/C %) [10, 18]: 138.4%
Number surviving after 40 days [10, 17]: 8
Average day surviving [10, 19]: 39.0 ± 0.2 days
Prolongation percentage of life (T/C %) [10, 20]: 138.8%
Number surviving after 40 days [10, 19]: 9

CC(C)=CCc1cc(/C=C/C(=O)O)cc(CC=C(C)C)c1O [compound 5, potassium salt of 3-[4-hydroxy-3,5-bis(3-methyl-2-butenyl)phenyl]-2-propenoic acid]
Average day surviving [10, 15]: 32.6 ± 0.6 days
Prolongation percentage of life (T/C %) [10, 15]: 116.0%
Number surviving after 40 days [10, 15]: 2
Average day surviving [10, 16]: 36.1 ± 0.5 days
Prolongation percentage of life (T/C %) [10, 16]: 128.5%
Number surviving after 40 days [10, 16]: 6
Average day surviving [10, 17]: 38.2 ± 0.4 days
Prolongation percentage of life (T/C %) [10, 18]: 135.9%
Number surviving after 40 days [10, 17]: 8
Average day surviving [10, 19]: 39.2 ± 0.3 days
Prolongation percentage of life (T/C %) [10, 20]: 139.5%
Number surviving after 40 days [10, 19]: 9

CC(C)=CCc1cc(/C=C/C(=O)O)cc(CC=C(C)C)c1O [compound 1, 3-[4-hydroxy-3,5-bis(3-methyl-2-butenyl)phenyl]-2-propenoic acid]
Average day surviving [10, 15]: 33.5 ± 0.6 days
Prolongation percentage of life (T/C %) [10, 15]: 119.2%
Number surviving after 40 days [10, 15]: 3
Average day surviving [10, 16]: 35.0 ± 0.9 days
Prolongation percentage of life (T/C %) [10, 16]: 124.6%
Number surviving after 40 days [10, 16]: 5
Average day surviving [10, 17]: 37.3 ± 0.4 days
Prolongation percentage of life (T/C %) [10, 18]: 132.7%
Number surviving after 40 days [10, 17]: 7
Average day surviving [10, 19]: 39.8 ± 0.1 days
Prolongation percentage of life (T/C %) [10, 20]: 141.6%
Number surviving after 40 days [10, 19]: 9

O=C(/C=C/c1ccc(O)c(O)c1)OCCc1ccccc1 [caffeic acid phenethyl ester]
antitumor activity on human malignant tumors [14]: exerted an antitumor activity

O=c1c(O)c(-c2ccc(O)c(O)c2)oc2cc(O)cc(O)c12 [quercetin]
antitumor activity on human malignant tumors [14]: exerted an antitumor activity
